Residue numbers refer to the chain shown, from its start. Where a name gives a salt, the structure may show the parent alone.
Experiments:
AKR1C3 K104D [1] = biological target: T1, AKR1C3 K104D (Homo sapiens, UniProt P42330, K104D); assay: Specific activity after preincubation at 37 °C with cofactor; format: biochemical; conditions: alone roughly 50%
T1 sequence (P42330 1-323 K104D): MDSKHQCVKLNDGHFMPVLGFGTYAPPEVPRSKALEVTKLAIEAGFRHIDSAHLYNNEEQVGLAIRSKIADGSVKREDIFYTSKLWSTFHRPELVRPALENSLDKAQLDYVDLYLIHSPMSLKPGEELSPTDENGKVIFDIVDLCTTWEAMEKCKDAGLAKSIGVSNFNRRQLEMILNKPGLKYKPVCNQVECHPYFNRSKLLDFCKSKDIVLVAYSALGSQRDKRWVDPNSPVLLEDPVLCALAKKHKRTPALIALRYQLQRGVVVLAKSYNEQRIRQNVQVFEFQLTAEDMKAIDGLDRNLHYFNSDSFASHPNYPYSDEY

AKR1C3 = conditions: cited from earlier work
AKR1C3 WT = biological target: T2, AKR1C3 WT (Homo sapiens, UniProt P42330); assay: Kd for NAD; format: binding; conditions: read-out: Kd NADP+, 0.5 μM protein, pH 7.0, 25 °C, Morrison equation
T2 sequence (P42330 1-323): T1 sequence (P42330 1-323 K104D) with D104K

AKR1C3 H5Q = biological target: T3, AKR1C3 H5Q (Homo sapiens, UniProt P42330, H5Q); assay: Kd for NAD; format: binding; conditions: read-out: Kd NADP+, 0.5 μM protein, pH 7.0, 25 °C, Morrison equation
T3 sequence (P42330 1-323 H5Q): T1 sequence (P42330 1-323 K104D) with H5Q, D104K

AKR1C3 E77G = biological target: T4, AKR1C3 E77G (Homo sapiens, UniProt P42330, E77G); assay: Kd for NAD; format: binding; conditions: read-out: Kd NADP+, 0.5 μM protein, pH 7.0, 25 °C, Morrison equation
T4 sequence (P42330 1-323 E77G): T1 sequence (P42330 1-323 K104D) with E77G, D104K

AKR1C3 K104D [2] = biological target: T1, AKR1C3 K104D; assay: Kd for NAD; format: binding; conditions: read-out: Kd NADP+, 0.5 μM protein, pH 7.0, 25 °C, Morrison equation

K104D activity remaining (% of activity at 0 min) (AKR1C3 K104D [1]; K104D preincubated at 37 °C with 2 mM NAD+, four hours) | Kd (AKR1C3 WT) [nM] | Kd (AKR1C3 H5Q) [nM] | Kd (AKR1C3 E77G) [nM] | Kd (AKR1C3 K104D [2]) [nM] | K104D activity remaining (% of activity at 0 min) (AKR1C3 K104D [1]; K104D preincubated at 37 °C with 2 mM NADP+, over four hours) [%] | Compound | binding affinity of NADP+ relative to NAD+ (AKR1C3) [times]
roughly 75% | – | – | – | – | – | NC(=O)c1ccc[n+]([C@@H]2O[C@H](COP(=O)([O-])OP(=O)(O)OC[C@H]3O[C@@H](n4cnc5c(N)ncnc54)[C@H](O)[C@@H]3O)[C@@H](O)[C@H]2O)c1 [NAD+, nicotinamide adenine dinucleotide Grade II free acid] | –
– | 110 ± 17 | 120 ± 33 | 120 ± 35 | 100 ± 47 | 100 | NC(=O)c1ccc[n+]([C@@H]2O[C@H](COP(=O)([O-])OP(=O)(O)OC[C@H]3O[C@@H](n4cnc5c(N)ncnc54)[C@H](OP(=O)(O)O)[C@@H]3O)[C@@H](O)[C@H]2O)c1 [NADP+, nicotinamide adenine dinucleotide phosphate oxidized disodium salt] | ~1000

— publication PMC9675978 (The Journal of steroid biochemistry and molecular biology, 2022)
